Drawing on ChEMBL document CHEMBL1177750, “Cellular localization of clathridimine, an antimicrobial 2-aminoimidazole alkaloid produced by the Mediterranean calcareous sponge Clathrina clathrus” (2010), this text covers zone of inhibition for 4 compounds.

Format in all cases: functional
One assay deals with Staphylococcus aureus. The assay is described as follows: Antimicrobial activity against Staphylococcus aureus ATCC 6538 at 100 ug/well after 24 hrs at 37 degC by agar diffusion assay. The conditions noted are these: ATCC 6538, 24 h, read-out: DIZ.
For another assay, the system named is Escherichia coli. Description: Antimicrobial activity against Escherichia coli ATCC 8739 at 100 ug/well after 24 hrs at 37 degC by agar diffusion assay. Particulars: ATCC 8739, 24 h, read-out: DIZ.
A further assay deals with Candida albicans. Description: Antimicrobial activity against Candida albicans ATCC 66029 at 100 ug/well after 24 hrs at 30 degC by agar diffusion assay. Particulars: ATCC 66029, 24 h, read-out: DIZ.

For `CN1C(=O)N=C(Nc2nc(Cc3ccc4c(c3)OCO4)cn2C)C1=O` [CLATHRIDINE], the zone of inhibition at 100 µg/disc stood at 0 mm with Staphylococcus aureus, 0 mm in the assay with Escherichia coli and 18 mm in the assay on Candida albicans.
As to `NC[C@H]1O[C@H](O[C@H]2[C@H](O)[C@@H](O[C@H]3O[C@H](CO)[C@@H](O)[C@H](N)[C@H]3O)[C@H](N)C[C@@H]2N)[C@H](O)[C@@H](O)[C@@H]1O` [KANAMYCIN], the zone of inhibition at 100 µg/disc in the assay with Staphylococcus aureus is 37 mm; in the assay on Escherichia coli it was 38 mm.
On to `CCC(C)n1ncn(-c2ccc(N3CCN(c4ccc(OCC5COC(Cn6cncn6)(c6ccc(Cl)cc6Cl)O5)cc4)CC3)cc2)c1=O` (centres undefined) [ITRACONAZOLE], for which the zone of inhibition at 100 µg/disc with Candida albicans stood at 21 mm.
As to `CN1C(=N)N=C(Nc2nc(Cc3ccc4c(c3)OCO4)cn2C)C1=O` [CLATHRIDIMINE], the zone of inhibition at 100 µg/disc in the assay with Staphylococcus aureus is 0 mm; in the assay with Escherichia coli, 15 mm; in the assay with Candida albicans, 24 mm.
